This passage reports IC50 results from patent US20200069691A1, “HETEROCYCLIC COMPOUNDS AS HIV PROTEASE INHIBITORS” (Merck Sharp & Dohme Corp., priority 2016, published 2020).

Structures are written as SMILES.

In the assay the target is T1, wild-type HIV-1 protease (Human immunodeficiency virus type 1 group M subtype B, UniProt P04585).
T1 construct: Escherichia coli expressed wild-type HIV-1 protease protein
As to the kind of experiment: Assay for Inhibition of Microbial Expressed HIV Protease (peptide substrate cleavage, LC-MS/MS readout). The class given is biochemical. As to conditions: E. coli expressed wild-type HIV-1 protease, mean of at least two independent experiments, read-out: HIV Pr Enzyme HIV1 PR IC50. In a few lines: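 Cleavage of Val-Ser-Gln-Asn-(β-naphthyl)Ala-Pro-Ile-Val (400 μM) by recombinant HIV-1 protease ([…]) ran 1 h at 30 °C after a 30 min room-temperature inhibitor preincubation in 50 mM sodium acetate pH 5.5. Product peak areas by LC-MS/MS gave inhibition; values average at least two independent runs.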
For the compound `Cc1cc(CN2C(=N)NC(c3ccc(F)cc3)(c3ccc(F)cc3)C2=O)cc(C(=O)N2Cc3nccnc3C2)n1` [Compound 406, 3-{[2-(5,7-dihydro-6H-pyrrolo[3,4-b]pyrazin-6-ylcarbonyl)-6-methylpyridin-4-yl]methyl}-5,5-bis(4-fluorophenyl)-2-iminoimidazolidin-4-one], the IC50 was 10.6 nM. For `CC(=O)c1cccc(-c2ncc3c(n2)CN(C(=O)c2cc(CN4C(=N)N[C@](CCCC(F)(F)F)(c5ccc(F)cc5)C4=O)ccc2C(F)(F)F)C3)c1` [Compound 59, (5R)-3-[3-{[2-(3-acetylphenyl)-5,7-dihydro-6H-pyrrolo[3,4-d]pyrimidin-6-yl]carbonyl}-4-(trifluoromethyl)benzyl]-5-(4-fluorophenyl)-2-imino-5-(4,4,4-trifluorobutyl)imidazolidin-4-one], the IC50 came to 6.45 nM. Under `CC(C)CCC1(c2ccccc2)NC(=N)N(Cc2ccc(C(F)(F)F)c(C(=O)N3CCC(n4c(=O)[nH]c5ccccc54)CC3)c2)C1=O` (stereo not shown) [Compound 155, 1-(1-{[5-{[2-imino-4-(3-methylbutyl)-5-oxo-4-phenyl-imidazolidin-1-yl]methyl}-2-(trifluoromethyl)phenyl]carbonyl}piperidin-4-yl)-1,3-dihydro-2H-benzimidazol-2-one] stands 11.3 nM.

On to `N=C1NC(c2ccc(F)cc2)(c2ccc(F)cc2)C(=O)N1Cc1cccc(C(=O)N2CCC(n3c(=O)[nH]c4ccccc43)CC2)c1` [Compound 338, 1-{1-[(3-{[4,4-bis(4-fluorophenyl)-2-imino-5-oxoimidazolidin-1-yl]methyl}phenyl)carbonyl]piperidin-4-yl}-1,3-dihydro-2H-benzimidazol-2-one], for which the IC50 came out at 73.5 nM. Regarding `N=C1NC(c2ccccc2)(c2ccc(-c3ccccc3)cc2)C(=O)N1Cc1cccc(C(=O)N2Cc3nccnc3C2)c1` (stereo not shown) [Compound 192, 5-biphenyl-4-yl-3-[3-(5,7-dihydro-6H-pyrrolo[3,4-b]pyrazin-6-ylcarbonyl)benzyl]-2-imino-5-phenylimidazolidin-4-one], the IC50 was 44.2 nM.

`COC(=O)N1CCN(C(=O)c2cccc(CN3C(=N)NC(CCC(C)C)(c4cccc(-c5cccnc5)c4)C3=O)c2)CC1` (stereo not shown) [Compound 354, methyl 4-[(3-{[2-imino-4-(3-methylbutyl)-5-oxo-4-(3-pyridin-3-ylphenyl)imidazolidin-1-yl]methyl}phenyl)carbonyl] piperazine-1-carboxylate]: the IC50 was 89.1 nM.

In the case of `CC(C)(C)NC(=O)c1nnc2n1CCN(C(=O)c1cccc(CN3C(=N)NC(c4ccccc4)(c4ccccc4)C3=O)c1)C2` [Compound 361, N-tert-butyl-7-({3-[(2-imino-5-oxo-4,4-diphenylimidazolidin-1-yl)methyl]phenyl}carbonyl)-5,6,7,8-tetrahydro[1,2,4]triazolo[4,3-a]pyrazine-3-carboxamide], the IC50 is 96.1 nM. Under `CCc1nnc2n1CCN(C(=O)c1cccc(CN3C(=N)NC(c4ccccc4)(c4ccccc4)C3=O)c1)C2` [Compound 356, 3-{3-[(3-ethyl-5,6-dihydro[1,2,4]triazolo[4,3-a]pyrazin-7(8H)-yl)carbonyl]benzyl}-2-imino-5,5-diphenylimidazolidin-4-one] stands 91.2 nM; under `N=C1NC(c2ccc(F)cc2)(c2ccc(F)cc2)C(=O)N1Cc1ccc(C(F)(F)F)c(C(=O)N2Cc3nccnc3C2)c1` [Compound 139, 3-[3-(5,7-dihydro-6H-pyrrolo[3,4-b]pyrazin-6-ylcarbonyl)-4-(trifluoromethyl)benzyl]-5,5-bis(4-fluorophenyl)-2-iminoimidazolidin-4-one], 2.93 nM.

On to `N=C1N[C@](CCCC(F)(F)F)(c2ccc(F)cc2)C(=O)N1Cc1ccc(C(F)(F)F)c(C(=O)N2Cc3cnc(-c4cnc(-c5ccc(F)cc5)o4)nc3C2)c1` [Compound 113, (5R)-5-(4-fluorophenyl)-3-[3-({2-[2-(4-fluorophenyl)-1,3-oxazol-5-yl]-5,7-dihydro-6H-pyrrolo[3,4-d]pyrimidin-6-yl}carbonyl)-4-(trifluoromethyl)benzyl]-2-imino-5-(4,4,4-trifluorobutyl)imidazolidin-4-one], for which the IC50 is 31.9 nM. With `CC(C)CC1(c2ccccc2)NC(=N)N(Cc2ccc(C(F)(F)F)c(C(=O)N3Cc4nccnc4C3)c2)C1=O` (stereo not shown) [Compound 142, 3-[3-(5,7-dihydro-6H-pyrrolo[3,4-b]pyrazin-6-ylcarbonyl)-4-(trifluoromethyl)benzyl]-2-imino-5-(2-methylpropyl)-5-phenylimidazolidin-4-one], the IC50 came out at 3.23 nM. Under `CC(C)CC1(c2ccccc2)NC(=N)N(Cc2ccc(C(F)(F)F)c(C(=O)N3CCN(C)C(=O)C3)c2)C1=O` (stereo not shown) [Compound 156, 4-{[5-{[2-imino-4-(2-methylpropyl)-5-oxo-4-phenylimidazolidin-1-yl]methyl}-2-(trifluoromethyl)phenyl]carbonyl}-1-methylpiperazin-2-one] stands 13.5 nM; under `N=C1N[C@](CCCC(F)(F)F)(c2ccc(F)cc2)C(=O)N1Cc1ccc(C(F)(F)F)c(C(=O)N2Cc3cnc(-c4cnn(-c5cccc(Cl)c5)c4)nc3C2)c1` [Compound 133, (5R)-3-[3-({2-[1-(3-chlorophenyl)-1H-pyrazol-4-yl]-5,7-dihydro-6H-pyrrolo[3,4-d]pyrimidin-6-yl}carbonyl)-4-(trifluoromethyl)-benzyl]-5-(4-fluorophenyl)-2-imino-5-(4,4,4-trifluorobutyl)imidazolidin-4-one], 86.8 nM; under `N=C1NC(c2ccccc2)(c2ccccc2)C(=O)N1Cc1cccc(C(=O)N2CCN(C(=O)OCc3ccccc3)CC2)c1` [Compound 260, benzyl 4-({3-[(2-imino-5-oxo-4,4-diphenylimidazolidin-1-yl)methyl]phenyl}carbonyl) piperazine-1-carboxylate], 23.2 nM. As for `CCC(c1cccc(C(=O)N2Cc3ccccc3C2)c1)N1C(=N)NC(c2ccccc2)(c2ccccc2)C1=O` (stereo not shown) [Compound 225, 3-{1-[3-(1,3-dihydro-2H-isoindol-2-ylcarbonyl)phenyl]propyl}-2-imino-5,5-diphenylimidazolidin-4-one], the IC50 came out at 11.9 nM. On to `N=C1NC(c2ccc(F)cc2)(c2ccc(F)cc2)C(=O)N1Cc1cccc(C(=O)N2Cc3cc(F)c(F)cc3C2)c1` [Compound 197, 3-{3-[(5,6-difluoro-l,3-dihydro-2H-isoindol-2-yl)carbonyl]benzyl}-5,5-bis(4-fluorophenyl)-2-iminoimidazolidin-4-one], for which the IC50 amounted to 5.25 nM. Under `Cc1nonc1N1CCN(C(=O)c2cc(CN3C(=N)N[C@](CCCC(F)(F)F)(c4ccc(F)cc4)C3=O)ccc2C(F)(F)F)CC1` [Compound 84, (5R)-5-(4-fluorophenyl)-2-imino-3-[3-{[4-(4-methyl-1,2,5-oxadiazol-3-yl)piperazin-1-yl]carbonyl}-4-(trifluoromethyl)benzyl]-5-(4,4,4-trifluorobutyl)imidazolidin-4-one] stands 14.1 nM; under `COC(=O)N1CCN(C(=O)c2cccc([C@@H](C)N3C(=N)N[C@](CC(C)C)(c4ccccc4)C3=O)c2)CC1` [Compound 279, methyl 4-[(3-{(1R)-1-[2-imino-4-(2-methylpropyl)-5-oxo-4-phenylimidazolidin-1-yl]ethyl}phenyl)carbonyl] piperazine-1-carboxylate], 30.5 nM; under `COC(=O)N1CCN(C(=O)c2ccnc(CN3C(=N)NC(CCC(C)C)(c4ccccc4)C3=O)c2)CC1` (stereo not shown) [Compound 405, methyl 4-[(2-{[2-imino4-(3-methylbutyl)-5-oxo-4-phenylimidazolidin-1-yl]methyl}pyridin-4-yl)carbonyl]piperazine-1-carboxylate], 81.1 nM. In the case of `N#Cc1ncc2c(n1)CN(C(=O)c1cc(CN3C(=N)NC(c4ccccc4)(c4ccccc4)C3=O)ccc1Cl)C2` [Compound 367, 6-({2-chloro-5-[(2-imino-5-oxo-4,4-diphenylimidazolidin-1-yl)methyl]phenyl}carbonyl)-6,7-dihydro-5H-pyrrolo[3,4-d]pyrimidine-2-carbonitrile] it was 5.13 nM; in that of `CC(c1cccc(C(=O)N2Cc3ccccc3C2)c1)N1C(=N)NC(c2ccccc2)(c2ccccc2)C1=O` (stereo not shown) [Compound 224, 3-{1-[3-(1,3-dihydro-2H-isoindol-2-ylcarbonyl)phenyl]ethyl}-2-imino-5,5-diphenylimidazolidin-4-one], 11.9 nM. In the case of `N=C1N[C@](CCCC(F)(F)F)(c2ccc(F)cc2)C(=O)N1Cc1ccc(C(F)(F)F)c(C(=O)N2Cc3cnc(-c4cccnc4)nc3C2)c1` [Compound 47, (5R)-5-(4-fluorophenyl)-2-imino-3-{3-[(2-pyridin-3-yl-5,7-dihydro-6H-pyrrolo[3,4-d]pyrimidin-6-yl)carbonyl]-4-(trifluoromethyl)-benzyl}-5-(4,4,4-trifluorobutyl)-imidazolidin-4-one] it was 4.91 nM. In the case of `COC(=O)Nc1ncc2c(n1)CN(C(=O)c1cc(CN3C(=N)NC(c4ccc(F)cc4)(c4ccc(F)cc4)C3=O)ccc1F)C2` [Compound 370, methyl {6-[(5-{[4,4-bis(4-fluorophenyl)-2-imino-5-oxoimidazolidin-1-yl]methyl}-2-fluorophenyl)carbonyl]-6,7-dihydro-5H-pyrrolo[3,4-d]pyrimidin-2-yl}carbamate], the IC50 was 5.81 nM.

On to `CC(C)CC(c1ccc(C(F)(F)F)c(C(=O)N2Cc3nccnc3C2)c1)N1C(=N)N[C@](CC2CC2)(c2ccccc2)CC1=O` (stereo partly drawn) [Compound 77, (6S)-6-(cyclopropylmethyl)-3-{1-[3-(5,7-dihydro-6H-pyrrolo[3,4-b]pyrazin-6-ylcarbonyl)-4-(trifluoromethyl)phenyl]-3-methyl-butyl}-2-imino-6-phenyltetra-hydropyrimidin-4(1H)-one], for which the IC50 was 10.5 nM. Under `CC(C)CCC1(c2ccc(F)cc2)NC(=N)N(Cc2ccc(C(F)(F)F)c(C(=O)N3C[C@H]4OCc5cnnn5[C@H]4C3)c2)C1=O` (stereo partly shown) [Compound 169] stands 38.6 nM.

As usually defined, the IC50 is the point on the concentration scale where inhibition reaches its midpoint.
